This data set in a line: Human HepG2 cell viability assay in 384 well format. The class given is toxicity, cell-based. Particulars: HepG2 cells, read-out: Inhibition. Also noted: dose 125 nL, time 70.5 hour; concentration not given beside the values.
As to `COc1ccc2[nH]cc(C(=O)CNc3nc(C)cs3)c2c1`, the cytotoxicity at 70.5 h came to 6.66%.

Regarding `CC(C)Oc1cccc(C(=O)C2CCCN(C(=O)c3ccccn3)C2)c1` (configuration not stated), the cytotoxicity at 70.5 h is -8.75%. Next, `O=C1CSC(c2ccc3c(c2)OCO3)c2cnn(C3CCCCC3)c2N1` (configuration not stated): -13.7%; `Cc1ncoc1C(=O)N1CCOC(Cc2ccccc2)C1` (configuration not stated): -6.6%; `Cn1cc(CN2CCOC(Cc3cccc(F)c3)C2)cn1` (configuration not stated): -6%. On to `Fc1ccc(-c2noc(CN3CCC(c4cc[nH]n4)CC3)n2)cc1`, for which the cytotoxicity at 70.5 h is -3.56%. The figure for `N#Cc1ccc(CN2CCC(CCc3ccc(O)cc3)CC2)cc1` is 11%. On to `CC(C)(C)NC(=O)CN1CCCN(c2ccc(C#N)cn2)CC1`, for which the cytotoxicity at 70.5 h was -6.98%.

Consider `CCCn1nnnc1COc1cc(OC)ccc1C(=O)OC`, for which the cytotoxicity at 70.5 h was -7.14%. As for `Cc1cc(C)nc(N2CCCC2c2cccnc2)n1` (configuration not stated), the cytotoxicity at 70.5 h is -2.91%. As for `N#Cc1ncn(CCS(=O)(=O)c2ccc(Br)cc2)n1`, the cytotoxicity at 70.5 h was found to be 4.43%. In the case of `FC(F)(F)c1[nH]nc2c1CN(Cc1ccccc1)CC2`, the cytotoxicity at 70.5 h is -11.1%. On to `CC(=O)c1ccc(C(=O)NCCCOC(C)c2ccccc2)s1` (configuration not stated), for which the cytotoxicity at 70.5 h stood at 1.1%. `CC(C)CNC(=O)CN(CC(=O)NCC(C)C)S(C)(=O)=O`: the cytotoxicity at 70.5 h is -8.05%.

`Cc1cc(NCc2ccc(N3CCNC(=O)C3)cc2)nc(C)n1`: the cytotoxicity at 70.5 h was -1.91%. Next, `CC1CCN(Cc2cc(=O)[nH]c(=O)[nH]2)CC1`: 8.26%. As to `CN(Cc1cccnc1)C[C@H]1CC[C@@H](Cc2ccc3c(cnn3C)c2)O1`, the cytotoxicity at 70.5 h was -10.4%.

On to `CC(=O)NCC(=O)N1Cc2c(-c3cccc(C)c3)nc(N)nc2C1C` (configuration not stated), for which the cytotoxicity at 70.5 h is -13.1%. With `CCOc1ccc(CN2CCNC(C(=O)NC3CC3)C2)cc1CO` (configuration not stated), the cytotoxicity at 70.5 h was -10.9%. Take `Cc1c(CN2CCCC(C(=O)c3ccc(C(C)(C)C)cc3)C2)cnn1C` (configuration not stated): the cytotoxicity at 70.5 h was -4.49%. Consider `O=C(NCCOc1ccccc1)C1NCCc2[nH]cnc21` (configuration not stated), for which the cytotoxicity at 70.5 h is -7.83%.

`O=C1CN(Cc2cnc3c(-c4ccccc4)cnn3c2)CCCN1`: the cytotoxicity at 70.5 h is -6.12%. Take `CCN1CCN(S(=O)(=O)N2CCc3ccccc3C2)[C@H]2CS(=O)(=O)C[C@H]21`: the cytotoxicity at 70.5 h was -9.8%. As for `O=C(c1cnc(COc2ccccc2)nc1O)N1CCOCC1`, the cytotoxicity at 70.5 h was -5.87%. Consider `CN1CCCN(C(=O)c2ccc3c(c2)nc(N2CCOCC2)n3C)CC1`, for which the cytotoxicity at 70.5 h was -8.33%.

Take `CCn1nc(CC(C)C)cc1C(=O)N1CC[C@@H](O)C1`: the cytotoxicity at 70.5 h is -3.86%. `COCC(=O)N1Cc2cnc(Cc3ccc(OC)cc3)nc2C1`: the cytotoxicity at 70.5 h was 1.24%. In the case of `CN(CCN1CCCCCC1)C(=O)c1cc(CN2CCC(O)CC2)on1`, the cytotoxicity at 70.5 h is -0.511%. As for `O=C(NCc1cc(O)ncn1)C1COc2ccccc2C1` (configuration not stated), the cytotoxicity at 70.5 h was -8.68%. For `COc1ncc(C2CC(=O)NCc3nc4ccccn4c32)cn1` (configuration not stated), the cytotoxicity at 70.5 h is -13.5%. Next, `Cc1cnccc1N1CCCN(C(=O)CCCS(N)(=O)=O)CC1`: 3.54%. As for `CCN1CCC2(CCC1=O)CN(c1ccnc(SC)n1)CCN2C` (configuration not stated), the cytotoxicity at 70.5 h was determined as 3.52%. As for `COC(=O)NCc1cc2n(n1)CCCN(C(C)=O)C2`, the cytotoxicity at 70.5 h is -7.46%.

With `O=C(O)c1cc(-c2cccnc2)cc(S(=O)(=O)N2CCCCCC2)c1`, the cytotoxicity at 70.5 h was -11.7%. Next, `Cc1cc(N2CCCN(C(=O)Cc3ccc(O)c(Cl)c3)CC2)ccn1`: -4.07%.

As for `Cc1ccc(-c2cccc(-c3ccn(CCN4CCCC4)n3)c2)nn1`, the cytotoxicity at 70.5 h was -6.29%. Next, `Cc1[nH]ccc1C(=O)N1CCCC(c2nccn2Cc2cscn2)C1` (configuration not stated): 20.2%. Consider `Cc1ccc2c(c1)c(CNC(=O)C1CC(=O)N(C3CCCC3)C1)nn2C` (configuration not stated), for which the cytotoxicity at 70.5 h was found to be 16.8%.

Consider `CCCc1cc(C(=O)N(C)Cc2cccc3ncccc23)n(C)n1`, for which the cytotoxicity at 70.5 h is -14.7%. In the case of `CCn1c(N)nc2cc(C(=O)NCCc3ccccc3C)cnc21`, the cytotoxicity at 70.5 h is -5.73%. As to `Cc1cc(C[C@@H]2COC[C@@H]2NC(=O)CN2CCCN(C)CC2)on1`, the cytotoxicity at 70.5 h is -7.54%.

For the compound `CN(Cc1cc[nH]n1)C(=O)c1cccc(CCC(C)(C)O)c1`, the cytotoxicity at 70.5 h is -3.42%.

In the case of `CCNC(=O)[C@@H]1C[C@H](NC(=O)c2cncnc2C)CN1CCCSC`, the cytotoxicity at 70.5 h is -1.96%. As to `O=C(c1cccc(S(=O)(=O)NCCCc2ccco2)c1)N1CCOCC1`, the cytotoxicity at 70.5 h worked out at 3.78%. `Cc1cc(-c2nnc(SCC(=O)O)n2C(C)c2ccccc2)nn1C` (configuration not stated): the cytotoxicity at 70.5 h is -0.677%. In the case of `COc1ccc2cc(C3CN(C(=O)C4CCOCC4)CCO3)ccc2c1` (configuration not stated), the cytotoxicity at 70.5 h was 1.57%. As for `C=Cc1ccc(C(=O)N2CCCC(Nc3ccc(OC)cc3)C2)cc1` (configuration not stated), the cytotoxicity at 70.5 h is -7.62%. Consider `CC[C@@]1(O)CCN(C(=O)c2ccc(-c3cccc(F)c3)cc2)C[C@H]1O`, for which the cytotoxicity at 70.5 h is -7.02%. Regarding `Cc1cc(NCc2cc3n(n2)CCCN(C(=O)N(C)C)C3)ncn1`, the cytotoxicity at 70.5 h is -12.5%.

Take `Cc1c(F)cccc1CN1CCn2nc(CNC(=O)N(C)C)cc2C1`: the cytotoxicity at 70.5 h is 20%. Turning to `Cc1c[nH]c(CN(C)c2nc(C3CCCC3)nc3c2cnn3C)n1`, the cytotoxicity at 70.5 h is -2.19%. For `CN1C(=O)CC(C(=O)O)C12CCN(Cc1ccc(Cl)cc1F)CC2` (configuration not stated), the cytotoxicity at 70.5 h was determined as 2.06%. Regarding `Cc1cccnc1NCCNC(=O)[C@H]1CNC[C@@H](C(=O)N2CCCC2)C1`, the cytotoxicity at 70.5 h was found to be 0.731%. Consider `O=C1O[C@@H]2CN(Cc3ccccc3)C[C@@H]2N1CCCN1CCOCC1`, for which the cytotoxicity at 70.5 h is -7.7%.

In the case of `CCS(=O)(=O)N1CCC2(CCCN(Cc3cc(OC)ccc3F)C2)C1` (configuration not stated), the cytotoxicity at 70.5 h is -6.66%.

Turning to `Cc1ccc(C(=O)N2CCC3(CCC(=O)N(CC(N)=O)C3)CC2)c(O)c1`, the cytotoxicity at 70.5 h was -9.11%. Next, `CCCc1nc(N2Cc3cnn(Cc4ccc(F)cc4)c3C2)no1`: -12.8%; `Cc1nc(CC(=O)N2CCC[C@H]2c2nc(C(C)C)no2)cs1`: -1.93%; `COc1ncccc1C(=O)NCC(C)Oc1cccnc1` (configuration not stated): -10.8%.

Regarding `CCNC(=O)[C@@H]1C[C@H](NC(=O)Cc2ccsc2)CN1Cc1ccc(C)o1`, the cytotoxicity at 70.5 h was -8.83%. Regarding `COc1cccc(CN2CCCC(Nc3cccc(F)c3)C2)c1O` (configuration not stated), the cytotoxicity at 70.5 h was -4.92%. Regarding `CCn1ncnc1C(NC(=O)CC1CCN(C(C)C)CC1)C1CC1` (configuration not stated), the cytotoxicity at 70.5 h came to 13.7%.

`O=C(C1CCC1)N1CCN(C(=O)c2cnccn2)[C@H]2CS(=O)(=O)C[C@H]21`: the cytotoxicity at 70.5 h is -11.7%. With `O=C(CN1CCNCC1)N1CC[C@@H](c2ccc3ccccc3c2)[C@H](O)C1`, the cytotoxicity at 70.5 h is -6.87%.

On to `O=C1CCC2(CCCN(C(=O)c3cscn3)C2)CN1CCc1c[nH]cn1` (configuration not stated), for which the cytotoxicity at 70.5 h is -9.29%. As to `Cc1cc(N2CCN(Cc3ccc(C)o3)CC2)cc(C)n1`, the cytotoxicity at 70.5 h was -9.4%. Turning to `CCN1CC2(CCN(CCOCCO)CC2)CC(c2ccccc2)C1=O` (configuration not stated), the cytotoxicity at 70.5 h worked out at 3.81%. Turning to `CCSCCNC(=O)C(c1cccc(C)c1)N(C)C` (configuration not stated), the cytotoxicity at 70.5 h came out at 35.5%. Consider `COC(=O)c1ccc2ccn(CC3CCCO3)c(=O)c2c1` (configuration not stated), for which the cytotoxicity at 70.5 h was -0.903%. On to `COc1cccc(OCC2CCCN(C3CCN(C(C)=O)CC3)C2)c1` (configuration not stated), for which the cytotoxicity at 70.5 h was -4.72%. Turning to `Cc1cc(C)n(CC(=O)N(C)Cc2csc(-c3cccs3)n2)c(=O)n1`, the cytotoxicity at 70.5 h was determined as 6.7%.

Regarding `c1cnn(Cc2nnc(C3CCN(C4CCOCC4)CC3)n2C2CC2)c1`, the cytotoxicity at 70.5 h is -10.6%. For the compound `Cn1ccnc1-c1ccccc1C(=O)N1CCc2c(nc(N)[nH]c2=O)C1`, the cytotoxicity at 70.5 h was -11.8%.

For the compound `CC(=O)NCCC1CCCCN1S(=O)(=O)c1cccc(C#N)c1` (configuration not stated), the cytotoxicity at 70.5 h is -2.49%. As for `Cc1ccc([C@@H]2CN(C(=O)c3cccnn3)C[C@H]2NC(=O)C2CC2)cc1`, the cytotoxicity at 70.5 h is -8.66%. Turning to `CC(C)(C)c1ncc2c(n1)CN(C(=O)c1ccc(-c3nc[nH]n3)cc1)C2`, the cytotoxicity at 70.5 h is -1.51%. In the case of `Cc1cccnc1CN(C)CC1(O)CCCN(CC2CCCCC2)C1=O` (configuration not stated), the cytotoxicity at 70.5 h worked out at 18.2%.

With `OC1(CN2CCCC2)CCCN(Cc2ccc(F)cc2Cl)C1` (configuration not stated), the cytotoxicity at 70.5 h was -7.3%. Regarding `CCc1cc(N2CCSCC2)n2nc(C)c(C)c2n1`, the cytotoxicity at 70.5 h is 12.2%. As to `CSCC[C@H](N)C(=O)NCc1cc2n(n1)CCCN(C1CCCCC1)C2`, the cytotoxicity at 70.5 h is -5.05%.

Regarding `CCSCC(C)NCc1nncn1C1CCCCC1` (configuration not stated), the cytotoxicity at 70.5 h is -2.76%. Take `Cc1nc(CN2CCC(C(=O)O)(n3ccc(-c4ccco4)n3)CC2)co1`: the cytotoxicity at 70.5 h is -7.1%.

`Cc1cnn(C(C)C2CC2)c1NC(=O)c1cnccn1` (configuration not stated): the cytotoxicity at 70.5 h was -11.2%. Regarding `COc1cc(CN2CCN(c3cccc(OC)c3)C(=O)C2)cc(OC)c1`, the cytotoxicity at 70.5 h is -1.7%. With `CCOCCNc1nc(C2CCCC2)nc2c1cnn2C`, the cytotoxicity at 70.5 h is 0.172%.

For the compound `COCC(=O)N1CCC(c2nccn2CC2CC2)CC1`, the cytotoxicity at 70.5 h was -8.88%. On to `CN(CCO)Cc1nnc(C2CCN(C3CCCCC3)CC2)n1C`, for which the cytotoxicity at 70.5 h is -14.7%. Turning to `CCN(CCn1cccn1)Cc1nc(-c2ccccc2F)oc1C`, the cytotoxicity at 70.5 h was -7.43%.

Turning to `COc1cccc([C@@H]2CN(C(=O)c3ccc(C)cc3O)C[C@H]2C(=O)O)c1`, the cytotoxicity at 70.5 h was -5.65%. On to `CCn1c(Cn2cncn2)nnc1C1CCN(Cc2ccc(C)o2)CC1`, for which the cytotoxicity at 70.5 h was -8.85%. Take `O=C(c1cc(COc2ccc3c(c2)OCO3)[nH]n1)N1CCOCC1`: the cytotoxicity at 70.5 h turned out to be 9.33%. On to `CC(C)(C)c1ncc2c(n1)CN(C(=O)c1ccncc1)C2`, for which the cytotoxicity at 70.5 h was -9.79%. For `CC(C)NS(=O)(=O)c1cc(C(=O)O)cc(-c2ccc(CN(C)C)cc2)c1`, the cytotoxicity at 70.5 h was determined as 16.9%. Turning to `Cc1[nH]ccc1C(=O)N1CCC(c2nnc(Cn3ccnc3)n2C)CC1`, the cytotoxicity at 70.5 h is -11.8%. For the compound `Cc1nn(CCn2ccnc2-c2cc3n(n2)CCCNC3)c(C)c1Cl`, the cytotoxicity at 70.5 h turned out to be 13.8%. Next, `CS(=O)(=O)NCCNCc1ccc(Br)s1`: 3.93%.

`CNCCc1nc2cc(F)ccc2[nH]1`: the cytotoxicity at 70.5 h was -5.66%.
